Measurements as given in patent US20060084599A1, “Compositions, methods and kits relating to notch signaling” (Maine Medical Center, priority 2003, published 2006).

Experiments:
NIH 3T3 cells = test: Cell migration (scratch) assay; assay type: cell-based, mouse; details: stable NIH 3T3 cell transfectants expressing the ligand
Description: Cell Migration Assay. Approximately 10^5 Sj1 or sDl1 NIH 3T3 cells were plated in 6-well plastic plates (Falcon) DMEM supplemented with 10% (w/v) bovine calf serum (BCS; Hyclone) and after the cells reached approximately 60-70% confluence, the cell monolayer was scratched using a plastic cell scraper. Photomicrographs were taken immediately after the injury and 24 hours and 48 hours later.

NCSC populations = test: Dosage sensitivity of secondary NCSC to BMP2 and sDl1; assay type: cell-based, murine; details: founders expanded 18 days; BMP2 and sDl1 dose response
Description: It is well established that quantitative changes in the dosage sensitivity of NCSC populations occur in vitro and in vivo during NCSC self-renewal (Kubu et al., 2002, Dev. Biol. 244:199-214; White et al., 1999, Development 126:4351-4363; White et al., 2001, Neuron 29:57-71). In order to resolve whether it was possible to clonally expand stem cell populations without the loss of qualitative or quantitative differentiation potential, it was evaluated whether NCSC population expansion in either a thrombin or a sJ 1 environment was able to maintain the quantitative dosage sensitivity of the NCSC populations to instructive differentiation factors. NCSC clones were expanded with either thrombin, TRAP, or sJ1 for 18 days, the clones dissociated to a clonal density every 6 days to minimize cell-cell interactions, and the p75^+/P0^− cells identified. The dosage sensitivity of secondary NCSC populations to both BMP2 and sDl1 was evaluated using the clonogenic differentiation assay to quantitate the production of neuron-only clones (BMP2) and glial-only clones (sDl1) after day 18.

cortactin = test: Phosphotyrosine cortactin immunoblot; assay type: cell-based, mouse; details: stable NIH 3T3 cell transfectants expressing the ligand
Description: Immunoblot Analysis. Cell lysates from insert-less vector sDl1 and sJ1 NIH 3T3 cell transfectants were prepared in 20 mM Tris HCl, pH 7.5, containing 300 mM sucrose, 60 mM—KCl, 15 mM NaCl, 0.5 mM EDTA, 0.5% (v/v) Triton X-100, 1 mM phenylmethylsulfonyl fluoride, 10 μg/ml leupeptin, 2 μg/ml aprotinin, 0.1% (w/v) deoxycholic acid and 1 mM sodium orthovanadate. Samples of equal protein content were subjected to SDS-PAGE and immunoblot analysis was performed as previously described (Small et al., 2001, J. Biol. Chem. 276:32022-32030) using either a rabbit anti-Src [pY418] phosphospecific antibody (Biosource International), a rabbit anti-total Src antibody (Santa Cruz Biotechnology), a rabbit polyclonal anti-cortactin antibody (a gift from Dr. Xi Zhan, American Red Cross), or an anti-phosphotyrosine antibody (Upstate). Immunoprecipitation of cortactin was performed as previously described (Zhan et al., 1993, J. Biol. Chem. 268:24427-24431).

Delta1 = molecular target: T1, Delta1 (Homo sapiens, UniProt O00548); test: Thrombin treatment of in vitro translated Delta1; assay type: biochemical
T1 construct: made in house; host or cells: cell-free in vitro translation (system not described for Delta1)

NSC populations = test: NSC clonal expansion on full-length Jagged1 NIH 3T3 feeder layer; assay type: cell-based; details: 5 μg/ml thrombin
Description: To further evaluate the activity of thrombin as a modifier of Jagged1, the clonal expansion studies were repeated using NSC populations cultured in the presence of a viable full-length Jagged1 NIH 3T3 cell transfectant feeder layer.

PAR1 null cells = test: FGF1 release from PAR1 null cells; assay type: cell-based, mouse; details: 10 μg/ml α-thrombin, 5 and 60 minutes
Description: Murine NIH 3T3 (ATCC), Swiss 3T3 (ATCC), sJ1 NIH 3T3 cell transfectants were all disclosed elsewhere herein (e.g., Example 1), FGF1 NIH 3T3 transfectants (Jackson et al., 1992, Proc. Natl. Acad. Sci. U.S.A. 89:10691-10695) and PAR1 null mouse embryonic fibroblasts (a gift from Dr. S. Coughlin) were grown in Dulbecco's modified Eagle's medium (DMEM; Life Technologies) supplemented with 10% bovine calf serum (BCS; Hyclone) and 1× antibiotic/antimycotic (Life Technologies). All stable NIH 3T3 cell transfectant cultures were further supplemented with 0.4 g/L Geneticin (GIBCO). […]
FGF1R136K NIH 3T3 cell transfectants or adenovirally-transduced NIH 3T3 cells were washed with DMEM containing 5 units/ml of heparin (Sigma) and stimulated with either 10 μg/ml α-thrombin (a gift from Dr. J. Fenton) or 5 μM TRAP (Sigma) at 37° C. for different periods of time. […] Cell viability was assessed by measuring lactate dehydrogenase activity in the conditioned medium after filtration as disclosed previously elsewhere herein (published as Mandinova et al., 2003, J. Cell Sci. 116:2687-2696), and total cell lysates were obtained and processed for immunoblot analysis as described (Landriscina et al., 2001, J. Biol. Chem. 276:22544-22552). […]

T1 sequence (O00548 18-723): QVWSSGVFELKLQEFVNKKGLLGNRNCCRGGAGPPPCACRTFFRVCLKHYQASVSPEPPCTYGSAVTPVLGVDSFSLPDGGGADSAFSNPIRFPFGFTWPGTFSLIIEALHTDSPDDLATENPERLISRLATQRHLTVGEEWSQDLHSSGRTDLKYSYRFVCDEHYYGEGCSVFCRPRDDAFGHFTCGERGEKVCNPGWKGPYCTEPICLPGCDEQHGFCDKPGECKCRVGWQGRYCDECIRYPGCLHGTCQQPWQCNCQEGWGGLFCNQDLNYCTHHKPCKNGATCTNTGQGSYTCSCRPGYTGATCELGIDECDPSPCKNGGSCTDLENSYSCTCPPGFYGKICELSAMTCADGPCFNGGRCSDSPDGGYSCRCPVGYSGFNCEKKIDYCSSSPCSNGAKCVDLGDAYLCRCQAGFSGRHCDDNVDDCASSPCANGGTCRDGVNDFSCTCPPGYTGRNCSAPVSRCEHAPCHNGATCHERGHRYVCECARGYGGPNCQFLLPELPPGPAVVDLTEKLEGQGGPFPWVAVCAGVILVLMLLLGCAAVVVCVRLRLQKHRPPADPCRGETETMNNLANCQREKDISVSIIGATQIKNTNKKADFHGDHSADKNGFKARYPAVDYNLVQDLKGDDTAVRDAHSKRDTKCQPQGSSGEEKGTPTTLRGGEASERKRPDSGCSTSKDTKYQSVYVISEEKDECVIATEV

Molecule | migratory behavior (NIH 3T3 cells) | shift in sensitivity of secondary stem cells to instructive differentiation signals (NCSC populations) | level of tyrosine-phosphorylated cortactin (cortactin) | proteolytic modification of Delta1 translation product (Delta1) | size of NSC colonies on full-length Jagged1 feeder layer (NSC populations) | export of FGF1R136K from PAR1 null cells (PAR1 null cells)
sJ1: Soluble Jagged1, amino acid residues about 1 to 1067 (SEQ ID NO:3) of full-length human Jagged1 | exhibited a decrease in their migratory potential | this shift in sensitivity to instructive differentiation signals was not observed | increased level |  |  | 
thrombin |  | this shift in sensitivity to instructive differentiation signals was not observed |  | unable to proteolytically modify the in vitro translation product of the Delta1 transcript | exaggeration of the size of the NSC colonies | unable to induce the export of the FGF1R136K mutant
sDl1: soluble non-transmembrane form (extracellular domain) of the Notch ligand Delta1 (protein, left off: small tags and cut ends, soluble non-transmembrane form (extracellular domain) of the Notch ligand Delta1) QVWSSGVFELKLQEFVNKKGLLGNRNCCRGGAGPPPCACRTFFRVCLKHYQASVSPEPPCTYGSAVTPVLGVDSFSLPDGGGADSAFSNPIRFPFGFTWPGTFSLIIEALHTDSPDDLATENPERLISRLATQRHLTVGEEWSQDLHSSGRTDLKYSYRFVCDEHYYGEGCSVFCRPRDDAFGHFTCGERGEKVCNPGWKGPYCTEPICLPGCDEQHGFCDKPGECKCRVGWQGRYCDECIRYPGCLHGTCQQPWQCNCQEGWGGLFCNQDLNYCTHHKPCKNGATCTNTGQGSYTCSCRPGYTGATCELGIDECDPSPCKNGGSCTDLENSYSCTCPPGFYGKICELSAMTCADGPCFNGGRCSDSPDGGYSCRCPVGYSGFNCEKKIDYCSSSPCSNGAKCVDLGDAYLCRCQAGFSGRHCDDNVDDCASSPCANGGTCRDGVNDFSCTCPPGYTGRNCSAPVSRCEHAPCHNGATCHERGHRYVCECARGYGGPNCQFLLPELPPGPAVVDLTEKLEGQGGPFPW | displayed normal motility |  | decrease |  |  | 
